Measurements reported in US20250127162A1, “METHODS AND COMPOSITIONS FOR CONTROLLING PESTS IN RICE” (Globachem NV, priority 2022, published 2025).

How the values were obtained:
Oryzaphagus oryzae = assay: Rice field trials, number of Oryzaphagus oryzae (Example 2, Trials 1-2, Brazil); format: in vivo; conditions: 3 days after application; for Number of Oryzaphagus oryzae, Average: average of 4 repetitions; for Number of Oryzaphagus oryzae, Repetition A / Number of Oryzaphagus oryzae, Repetition B / Number of Oryzaphagus oryzae, Repetition C / Number of Oryzaphagus oryzae, Repetition D: one application
Experimental: (§1) All applications were made with an EC formulation containing 650 g/L of pelargonic acid (e.g., 685 g/L of 95% purity pelargonic acid), an anionic emulsifier and a branched fatty acid ester solvent.
Trials 1-2 assessing the use of pelargonic acid for controlling Oryzaphagus oryzae in rice were conducted in Brazil. One application was made 5 days after the first flood irrigation. Assessments of the number of Oryzaphagus oryzae were made three (3) days after application for each of the four (4) repetitions at each dose rate.

Diabrotica speciosa = assay: Potato field trials, control of Diabrotica speciosa (Example 3); format: in vivo; conditions: 400 L water/ha, two applications 7 d apart, Actara 0.05 kg/ha
From the text: as §1, with “solvent. […]. […] Potatoes—Diabrotica speciosa (Cucurbit beetle)-DIABSC [table] [table]” for “solvent.”

[1] = Trial 1, listed as PA 487.5 g/ha
[2] = Trial 1, listed as PA 1300 g/ha
[3] = Trial 2, listed as PA 487.5 g/ha
[4] = Trial 2, listed as PA 1300 g/ha

For `CCCCCCCCC(=O)O` [PA 650 g/ha, pelargonic acid], the E % (Oryzaphagus oryzae; Trial 1) was 90%, the “Number of Oryzaphagus oryzae, Average” value (Oryzaphagus oryzae; Trial 1) was 0.25 b and the “Number of Oryzaphagus oryzae, Average” value (Oryzaphagus oryzae; [1]) was 0.5 b. The “Number of Oryzaphagus oryzae, Average” value (Oryzaphagus oryzae; Trial 1, listed as PA 975 g/ha) was 0.25 b, the “Number of Oryzaphagus oryzae, Average” value (Oryzaphagus oryzae; [2]) was 0 b and the E % (Oryzaphagus oryzae; [1]) was 80%. For the same molecule, the E % (Oryzaphagus oryzae; Trial 1, listed as PA 975 g/ha) was 90%, the E % (Oryzaphagus oryzae; [2]) was 100% and the “Number of Oryzaphagus oryzae, Repetition A” value (shortened to “Number … Repetition A”) (Oryzaphagus oryzae; Trial 1) was 1. For the same molecule, the “Number of Oryzaphagus oryzae, Repetition B” value (shortened to “Number … Repetition B”) (Oryzaphagus oryzae; Trial 1) was 0, the “Number of Oryzaphagus oryzae, Repetition C” value (shortened to “Number … Repetition C”) (Oryzaphagus oryzae; Trial 1) was 0 and the “Number of Oryzaphagus oryzae, Repetition D” value (shortened to “Number … Repetition D”) (Oryzaphagus oryzae; Trial 1) was 0. For the same molecule, the “Number … Repetition A” value (Oryzaphagus oryzae; [1]) was 0, the “Number … Repetition B” value (Oryzaphagus oryzae; [1]) was 1 and the “Number … Repetition C” value (Oryzaphagus oryzae; [1]) was 1. The “Number … Repetition D” value (Oryzaphagus oryzae; [1]) was 0, the “Number … Repetition A” value (Oryzaphagus oryzae; Trial 1, listed as PA 975 g/ha) was 0 and the “Number … Repetition B” value (Oryzaphagus oryzae; Trial 1, listed as PA 975 g/ha) was 0. For the same molecule, the “Number … Repetition C” value (Oryzaphagus oryzae; Trial 1, listed as PA 975 g/ha) was 0, the “Number … Repetition D” value (Oryzaphagus oryzae; Trial 1, listed as PA 975 g/ha) was 1 and the “Number … Repetition A” value (Oryzaphagus oryzae; [2]) was 0. The “Number … Repetition B” value (Oryzaphagus oryzae; [2]) was 0, the “Number … Repetition C” value (Oryzaphagus oryzae; [2]) was 0 and the “Number … Repetition D” value (Oryzaphagus oryzae; [2]) was 0. For the same molecule, the E % (Oryzaphagus oryzae; Trial 2) was 77.78%, the “Number of Oryzaphagus oryzae, Average” value (Oryzaphagus oryzae; Trial 2) was 0.5 ab and the “Number of Oryzaphagus oryzae, Average” value (Oryzaphagus oryzae; [3]) was 0.75 ab. The “Number of Oryzaphagus oryzae, Average” value (Oryzaphagus oryzae; Trial 2, listed as PA 975 g/ha) was 0.25 b, the “Number of Oryzaphagus oryzae, Average” value (Oryzaphagus oryzae; [4]) was 0 b and the E % (Oryzaphagus oryzae; [3]) was 66.67%. The E % (Oryzaphagus oryzae; Trial 2, listed as PA 975 g/ha) was 88.89%, the E % (Oryzaphagus oryzae; [4]) was 100% and the “Number … Repetition A” value (Oryzaphagus oryzae; Trial 2) was 1. For the same molecule, the “Number … Repetition B” value (Oryzaphagus oryzae; Trial 2) was 0, the “Number … Repetition C” value (Oryzaphagus oryzae; Trial 2) was 0 and the “Number … Repetition D” value (Oryzaphagus oryzae; Trial 2) was 1. For the same molecule, the “Number … Repetition A” value (Oryzaphagus oryzae; [3]) was 0, the “Number … Repetition B” value (Oryzaphagus oryzae; [3]) was 1 and the “Number … Repetition C” value (Oryzaphagus oryzae; [3]) was 2. The “Number … Repetition D” value (Oryzaphagus oryzae; [3]) was 0, the “Number … Repetition A” value (Oryzaphagus oryzae; Trial 2, listed as PA 975 g/ha) was 1 and the “Number … Repetition B” value (Oryzaphagus oryzae; Trial 2, listed as PA 975 g/ha) was 0. The “Number … Repetition C” value (Oryzaphagus oryzae; Trial 2, listed as PA 975 g/ha) was 0, the “Number … Repetition D” value (Oryzaphagus oryzae; Trial 2, listed as PA 975 g/ha) was 0 and the “Number … Repetition A” value (Oryzaphagus oryzae; [4]) was 0. For the same molecule, the “Number … Repetition B” value (Oryzaphagus oryzae; [4]) was 0, the “Number … Repetition C” value (Oryzaphagus oryzae; [4]) was 0 and the “Number … Repetition D” value (Oryzaphagus oryzae; [4]) was 0. For the same molecule, the “# Insects, % UNCK” value (Diabrotica speciosa; Trial 1, potato, 3 DAA) was 67.74b % UNCK, the “# Insects, % UNCK” value (Diabrotica speciosa; Trial 1, potato, 3 DAA, listed as PA 487.5 g/ha) was 48.39ab % UNCK and the “# Insects, % UNCK” value (Diabrotica speciosa; Trial 1, potato, 3 DAA, listed as PA 812.5 g/ha) was 64.52b % UNCK. The “# Insects, % UNCK” value (Diabrotica speciosa; Trial 1, potato, 3 DAA, listed as PA 975 g/ha) was 74.19b % UNCK, the “# Insects, % UNCK” value (Diabrotica speciosa; Trial 1, potato, 3 DAB) was 84.21c % UNCK and the “# Insects, % UNCK” value (Diabrotica speciosa; Trial 1, potato, 3 DAB, listed as PA 487.5 g/ha) was 34.2b1 % UNCK. For the same molecule, the “# Insects, % UNCK” value (Diabrotica speciosa; Trial 1, potato, 3 DAB, listed as PA 812.5 g/ha) was 86.84c % UNCK, the “# Insects, % UNCK” value (Diabrotica speciosa; Trial 1, potato, 3 DAB, listed as PA 975 g/ha) was 84.21c % UNCK and the “# Insects, % UNCK” value (Diabrotica speciosa; Trial 1, potato, 7 DAA) was 55.88abc % UNCK. The “# Insects, % UNCK” value (Diabrotica speciosa; Trial 1, potato, 7 DAA, listed as PA 487.5 g/ha) was 29.4ab % UNCK, the “# Insects, % UNCK” value (Diabrotica speciosa; Trial 1, potato, 7 DAA, listed as PA 812.5 g/ha) was 61.76bc % UNCK and the “# Insects, % UNCK” value (Diabrotica speciosa; Trial 1, potato, 7 DAA, listed as PA 975 g/ha) was 64.71bc % UNCK. The “# Insects, % UNCK” value (Diabrotica speciosa; Trial 1, potato, 7 DAB) was 81.08b % UNCK, the “# Insects, % UNCK” value (Diabrotica speciosa; Trial 1, potato, 7 DAB, listed as PA 487.5 g/ha) was 54.05b % UNCK and the “# Insects, % UNCK” value (Diabrotica speciosa; Trial 1, potato, 7 DAB, listed as PA 812.5 g/ha) was 83.78b % UNCK. For the same molecule, the “# Insects, % UNCK” value (Diabrotica speciosa; Trial 1, potato, 7 DAB, listed as PA 975 g/ha) was 83.78b % UNCK, the “# Insects, % UNCK” value (Diabrotica speciosa; Trial 2, potato, 3 DAA) was 61.90bc % UNCK and the “# Insects, % UNCK” value (Diabrotica speciosa; Trial 2, potato, 3 DAA, listed as PA 487.5 g/ha) was 38.10b % UNCK. The “# Insects, % UNCK” value (Diabrotica speciosa; Trial 2, potato, 3 DAA, listed as PA 812.5 g/ha) was 80.95cd % UNCK, the “# Insects, % UNCK” value (Diabrotica speciosa; Trial 2, potato, 3 DAA, listed as PA 975 g/ha) was 95.24de % UNCK and the “# Insects, % UNCK” value (Diabrotica speciosa; Trial 2, potato, 3 DAB) was 25.00ab % UNCK. The “# Insects, % UNCK” value (Diabrotica speciosa; Trial 2, potato, 3 DAB, listed as PA 487.5 g/ha) was 25.00ab % UNCK, the “# Insects, % UNCK” value (Diabrotica speciosa; Trial 2, potato, 3 DAB, listed as PA 812.5 g/ha) was 28.57b % UNCK and the “# Insects, % UNCK” value (Diabrotica speciosa; Trial 2, potato, 3 DAB, listed as PA 975 g/ha) was 53.57c % UNCK. For the same molecule, the “# Insects, % UNCK” value (Diabrotica speciosa; Trial 2, potato, 7 DAA) was 38.10b % UNCK, the “# Insects, % UNCK” value (Diabrotica speciosa; Trial 2, potato, 7 DAA, listed as PA 487.5 g/ha) was 23.81ab % UNCK and the “# Insects, % UNCK” value (Diabrotica speciosa; Trial 2, potato, 7 DAA, listed as PA 812.5 g/ha) was 85.71c % UNCK. The “# Insects, % UNCK” value (Diabrotica speciosa; Trial 2, potato, 7 DAA, listed as PA 975 g/ha) was 100.00d % UNCK, the “# Insects, % UNCK” value (Diabrotica speciosa; Trial 2, potato, 7 DAB) was 87.50bc % UNCK and the “# Insects, % UNCK” value (Diabrotica speciosa; Trial 2, potato, 7 DAB, listed as PA 487.5 g/ha) was 70.83b % UNCK. The “# Insects, % UNCK” value (Diabrotica speciosa; Trial 2, potato, 7 DAB, listed as PA 812.5 g/ha) was 91.67c % UNCK, the “# Insects, % UNCK” value (Diabrotica speciosa; Trial 2, potato, 7 DAB, listed as PA 975 g/ha) was 100.00c % UNCK and the “# Insects, % UNCK” value (Diabrotica speciosa; Trial 2, potato, 10 DAB) was 86.96bc % UNCK. The “# Insects, % UNCK” value (Diabrotica speciosa; Trial 2, potato, 10 DAB, listed as PA 487.5 g/ha) was 68.57b % UNCK, the “# Insects, % UNCK” value (Diabrotica speciosa; Trial 2, potato, 10 DAB, listed as PA 812.5 g/ha) was 91.30c % UNCK and the “# Insects, % UNCK” value (Diabrotica speciosa; Trial 2, potato, 10 DAB, listed as PA 975 g/ha) was 100.00c % UNCK.
